Patent US20230390319A1, “INTERFERON GENE STIMULATOR COMPOSITION COMPRISING INDOLIZINE DERIVATIVE AS ACTIVE INGREDIENT” (AJOU UNIVERSITY INDUSTRY-ACADEMIC COOPERATION FOUNDATION, priority 2020, published 2023)
Like-named read-outs stand apart in the source and are kept apart here.

What was measured:
ISRE reporter signal = test: ISRE luciferase reporter assay, THP-1 cells co-treated with compound and cGAMP; type: cell-based, Human
Experimental: (§1) Human monocytic THP-1 wild-type (WT) and STING knockout (KO) cell lines were obtained from InvivoGen. Cells were cultured in 1×RPMI 1640 medium containing 10% fetal bovine serum (FBS, Hyclone), 2.05 mM L-glutamine (Hyclone) and 1% penicillin (Corning) in a humidified incubator at 37° C. under 5% CO2.
(§2) To confirm immune responses, THP-1 cells were placed in 384-well plates (Grenier), and treated with each compound and cGAMP (1 μg/ml), and after 24 hours, ISRE activity was analyzed. QUANTI-Luc assay (InvivoGen) was performed using the cell culture supernatant to confirm the luciferase reporter gene signal. Fluorescent signals were measured using a TECAN micro plate reader SPARK, and the results were normalized to DMSO control.
THP-1 cells were co-treated with each of 86 indolizine derivatives and a very small amount of cGAMP (1 μg/ml), the immune response of the THP-1 cells was examined by ISRE reporter assay, and the cytotoxicity of co-treatment was also evaluated (Table 1). All results were compared by normalization to the reporter assay results obtained by treatment with cGAMP alone. […] Thus, Compound 42 was used in subsequent experiments.

STING KO cell line = test: ISRE reporter assay in THP-1 STING KO cell line; type: cell-based, Human; settings: co-treatment with cGAMP, FIG. 1
Experimental: as §1, §2

[1] = PK profiles after IV and PO administration to BALB/c mice; type: in vivo; settings: BALB/c, mouse, blood; for concentration at 0.5 h: 0.50 h; for AUC(0-t): read-out: AUClast AUC(0-t); for C0: read-out: C0; for Cmax: read-out: Cmax; for MRT inf: read-out: MRTINF_obs MRT(0-∞); for MRT last: read-out: MRTlast MRT(0-t)
Description: The pharmacokinetics and oral bioavailability of Compound 42 were investigated in mice following single intravenous (IV) injection and oral administration (PO).

[2] = iv, 5 mg/kg, IV 5 mg/kg, individual animals 101-103, read-out: concentration in blood
[3] = iv, 5 mg/kg, IV 5 mg/kg, mean, read-out: concentration in blood, Mean IV
[4] = iv, 5 mg/kg, IV 5.0 mg/kg, individual animals
[5] = iv, 5 mg/kg, IV 5.0 mg/kg, mean n=3
[6] = po, 20 mg/kg, PO 20 mg/kg, individual animals 201-203, read-out: concentration in blood
[7] = po, 20 mg/kg, PO 20 mg/kg, mean, read-out: concentration in blood, Mean PO

- bioavailability ([1]; 20 mg/kg, PO administration of 20 mpk): ~18%
- concentration at 0.083 h [1, 2]: 2590 ng/mL
- concentration at 0.083 h [1, 3]: 2750 ng/mL
- concentration at 0.25 h [1, 2]: 1520 ng/mL
- concentration at 0.25 h [1, 3]: 1420 ng/mL
- concentration at 0.5 h [1, 2]: 803 ng/mL
- concentration at 0.5 h [1, 3]: 820 ng/mL
- concentration at 1 h [1, 2]: 379 ng/mL
- concentration at 1 h [1, 3]: 350 ng/mL
- concentration at 4 h [1, 2]: 97.9 ng/mL
- concentration at 4 h [1, 3]: 107 ng/mL
- concentration at 24 h [1, 2]: 29.2 ng/mL
- concentration at 24 h [1, 3]: 34.9 ng/mL
- AUC(0-inf) ([1]; iv, 5 mg/kg, IV 5.0 mg/kg, individual animals, read-out: AUCINF_obs AUC(0-∞)): 3420 ng·h/mL
- AUC(0-t) [1, 4]: 3160 ng·h/mL
- C0 [1, 4]: 3380 ng/mL
- clearance ([1]; iv, 5 mg/kg, IV 5.0 mg/kg, individual animals, read-out: Cl_obs Cl (converted)): 24.4 mL/min/kg
- Cmax [1, 4]: 2590 ng/mL
- half-life ([1]; iv, 5 mg/kg, IV 5.0 mg/kg, individual animals, read-out: HL_Lambda_z T1/2 (converted)): 6.03 h
- MRT inf [1, 4]: 6.07 h
- MRT last [1, 4]: 3.93 h
- Vd ([1]; iv, 5 mg/kg, IV 5.0 mg/kg, individual animals, read-out: Vss_obs Vss): 8.88 L/kg
- Vd ([1]; iv, 5 mg/kg, IV 5.0 mg/kg, individual animals, read-out: Vz_obs Vz): 12.7 L/kg
- AUC(0-inf) ([1]; iv, 5 mg/kg, IV 5.0 mg/kg, mean n=3, read-out: AUCINF_obs AUC(0-∞)): 3700 ng·h/mL
- AUC(0-t) [1, 5]: 3300 ng·h/mL
- C0 [1, 5]: 3830 ng/mL
- clearance ([1]; iv, 5 mg/kg, IV 5.0 mg/kg, mean n=3, read-out: Cl_obs Cl (converted)): 22.7 mL/min/kg
- Cmax [1, 5]: 2750 ng/mL
- half-life ([1]; iv, 5 mg/kg, IV 5.0 mg/kg, mean n=3, read-out: HL_Lambda_z T1/2 (converted)): 7.76 h
- MRT inf [1, 5]: 7.6 h
- MRT last [1, 5]: 4.27 h
- Vd ([1]; iv, 5 mg/kg, IV 5.0 mg/kg, mean n=3, read-out: Vss_obs Vss): 10.2 L/kg
- Vd ([1]; iv, 5 mg/kg, IV 5.0 mg/kg, mean n=3, read-out: Vz_obs Vz): 15 L/kg
- AUC(0-inf) ([1]; iv, 5 mg/kg, IV administration of 5 mg/kg (mpk), read-out: AUC∞): 3700 ng·h/mL
- Cmax ([1]; iv, 5 mg/kg, IV administration of 5 mg/kg (mpk)): 2750 ng/mL
- half-life ([1]; iv, 5 mg/kg, IV administration of 5 mg/kg (mpk), read-out: half-life (converted)): ~7.76 h
- clearance ([1]; iv, 5 mg/kg, IV administration, read-out: mean blood clearance): 22.7 mL/min/kg
- Vd ([1]; iv, 5 mg/kg, IV administration, read-out: mean volume of distribution at steady state (Vss)): 10.2 L/kg
- concentration at 0.25 h [1, 6]: 75.3 ng/mL
- concentration at 0.25 h [1, 7]: 89.9 ng/mL
- concentration at 0.5 h [1, 6]: 139 ng/mL
- concentration at 0.5 h [1, 7]: 156 ng/mL
- concentration at 1 h [1, 6]: 211 ng/mL
- concentration at 1 h [1, 7]: 225 ng/mL
- concentration at 3 h [1, 6]: 149 ng/mL
- concentration at 3 h [1, 7]: 161 ng/mL
SMILES: CC(=O)c1ccc(-c2cc(C(=O)c3ccc(C(F)(F)F)cc3)n3ccccc23)cc1 [Compound 42]
- ISRE reporter effect in WT cell line (ISRE reporter signal; THP-1 WT, co-treatment with cGAMP, FIG. 1): increased effect
- Normalized RU (relative unit of ISRE reporter signal) (ISRE reporter signal; THP-1 cells, 20 μM of each compound, co-treated with cGAMP (1 μg/ml), 24 hours): 9.32
- efficacy in ISRE reporter assay (ISRE reporter signal; co-administered with cGAMP, among 86 indolizine derivatives): highest efficacy
- ISRE reporter effect in STING KO cell line (STING KO cell line): no effect
